In patent US5643954A, “Method of preventing and alleviating stress in a healthy mammal in need thereof” (priority 1993, dated 1997):

How the values were obtained:
[1] = orientation motive activity of mice, automated registration of movements; assay type: in vivo, mice (male); conditions: for Number of movements in 10 min in register: M ± m
Experimental: Experiments were conducted in vivo on male mice weighing 18-22 g and male rats weighing 200-250 g, as well as in vitro on the isolated organs: a guinea pig's ileum and a rat's seminal effervesces.

[2] = test system: hexenal sleep; experiment: comparative interaction test with hexenal, rats; assay type: in vivo; conditions: for Hexanal sleep duration: M ± m
[3] = assay type: in vivo; conditions: in words
[4] = test system: bioelectric activity of rats' brain; experiment: spontaneous bioelectrical activity of rats' brain (EEG, implanted electrodes); assay type: in vivo; conditions: 90 mg/kg
[5] = test system: Corazol twitches; experiment: comparative interaction test with Corazol, rats; assay type: in vivo; conditions: M ± m
[6] = testings with Corazolin (Corazol), mice; assay type: in vivo; conditions: mouse, in vivo; 150 mg/kg of weight; read-out: death of the animals
[7] = test system: Corazol convulsions; experiment: testings with Corazolin (Corazol), mice; assay type: in vivo; conditions: 150 mg/kg of weight

Structure (SMILES) | Number of movements in 10 min in register ([1]; 100 mg/kg intraperitoneally) | Number of movements in 10 min in register ([1]; 200 mg/kg intraperitoneally) | Number of movements in 10 min in register ([1]; 500 mg/kg intraperitoneally) | motor activity ([1]; in words) | Hexanal sleep duration ([2]; 100 mg/kg) [min] | Hexanal sleep duration ([2]; 200 mg/kg) [min] | hexenal sleep ([2]; in words) | tonico-extensor component of Corazol and strychnine twitches and electrical shock [3] | Maximal effect appearance time from the start of experiment [4] [min] | Nature of effect [4] | Nature of effect, effective for [4] | Index, fast activ. ([4]; M ± m) [%] | Index, slow activ. ([4]; M ± m) [%] | Corazol twitches, latent period ([5]; 100 mg/kg) [min] | Corazol twitches, latent period ([5]; 200 mg/kg) [min] | mortality [6] [%] | time to death of the animals [7] [min]
NCC(CC(=O)O)c1ccccc1 (centres unmarked) [phenibut, reference compound] | 434 ± 4.4 | 186 ± 8.7 | 19 ± 3.0 | sharply inhibit motor activity as a dose is increased | 110.0 ± 8.3 | 130.0 ± 8.5 | prolong hexenal sleep | reduce the tonico-extensor component of Corazol and strychnine twitches and electrical shock | 40 | Permanent | over 3 hrs | 77 ± 0.9 | 87 ± 3.1 | 53.0 ± 5.4 | 50.0 ± 2.8 | – | –
C1CCc2nnnn2CC1 [Corazolin, reference compound] | – | – | – | – | – | – | – | – | – | – | – | – | – | – | – | 100 | 2 to 4
